Results published in PMC10572602, “Molecular Mechanism of STIL Coiled-Coil Domain Oligomerization” (International Journal of Molecular Sciences, 2023).

System: STIL CCD peptide
Experiment: AUC sedimentation equilibrium (SE), oligomeric state
Format: physicochemical
Settings: starting concentration 500 µM, triplicate, absorbance 280 nm, 95% confidence limits
Protocol: To quantify the dissociation constants of the possible monomer-dimer and dimer-tetramer transitions, we used fluorescence-based binding measurements. Using micro-scale thermophoresis, fluorescence measurements were taken at increasing concentrations of WT CCD peptide in a fixed background of 5 µM fluorophore-labelled peptide. […] Fitting the fluorescence data to the Hill equation provided a dissociation constant of 8 ± 2 µM and a cooperativity of 1.2 ± 0.3 (Figure 2B, Table S4). We interpret this as being for the monomer-dimer transition, and that the fluorescence measurements are insensitive to the higher-order oligomerization. […] To probe the possible dimer-tetramer transition, we turned to AUC-SE measurements with starting concentrations of 5, 10, and 20 µM of STIL WT CCD peptide (Figures S18 and S19). The equilibrated data were fitted first to a model for a single ideal species, which provided a species 2.9 × monomer mass (Table 1). […] It should be noted that the dimerization constant of the WT peptide was measured in the presence of 5% DMSO and using a fluorophore-labeled peptide, while the tetramerization constant was measured without DMSO and unlabeled peptides. The addition of the label and the presence of the DMSO, which was unavoidable for making the labeled peptide soluble, may have affected the measured dimerization constant. Thus, we avoid directly comparing the values obtained by the two methods.
Analytical ultracentrifugation (AUC) experiments were carried out using a Beckman Optima XL-A or XL-I analytical ultracentrifuge. Measurements were performed at 20 °C unless otherwise stated, using an An-50 or An-60 rotor, in Sodium Phosphate Buffer pH 6.8 (25 mM Na2PO4 with addition of 137 mM NaCl, pH measured using Jenway (TM) 3510 benchtop and adjusted using 1M HCl and 1M NaOH solutions). The partial specific volume ( υ¯ ) for each peptide were calculated in Sedfit using values from Cohn and Edsall. The buffer densities and viscosities were calculated using UltraScan III [54].
AUC sedimentation equilibrium (SE) experiments were run at multiple concentrations in a 6-Channel Epon charcoal-filled centerpiece. The samples were centrifuged at a range of speeds between 22–48 krpm. Absorbance scans across the radial range were recorded twice at each speed to ensure equilibration. Data were fitted to single, ideal species models or monomer-dimer equilibrium using Sedphat. In total, 95% confidence limits were obtained via Monte-Carlo analysis of the obtained fits. The quality of the fit was evaluated using the χ^2 parameter to observe which model best fit the data. Both fits of the data, where performed in Figures S18–S23 with their corresponding fit information.

L SPDAYRF LTEQDRQ LRLEQAQ IQRLLEA QSL-NH2 [STIL CCD718–749 L736E, STIL CCD peptide with destabilising L736E mutation; PDB 8oyk]
mass, single species model, SE: 3038 ± 292 Da
AUC oligomeric state, SE (single species fit, 20 °C, pH 6.8): 0.79 ± 0.08 (500 µM) × monomer mass
